On the data set, the source says: Solubility may be determined by measuring the amount of light transmittance (a light transmittance value) through a simple mixture of the non-volatile silicone fluid and liquid activation enhancer at the same weight/weight concentrations as in a final antiperspirant composition.
Solubility of a liquid activation enhancer in a non-volatile silicone may be determined by measuring the amount of light transmittance (light transmittance value) through a simple mixture of the non-volatile silicone fluid and liquid activation enhancer at the same weight/weight concentrations as in a final antiperspirant composition.
The Spectronic Genesys 10 V is utilizes a tungsten-halogen light source and has a spectral bandwidth of 5 nm, a wavelength range of 325 to 1100 nm, accuracy of ±1 nm and a repeatability of ±0.5 nm. Readouts include absorbance, transmittance and concentration. The spectrophotometer is set to 640 nm wavelength and the percent transmittance mode/readout. Polystyrene spectrometer cuvettes having a 1 cm optical light path and transmittance between ˜340 nm and ˜900 nm are used. One suitable example of a spectrometer cuvette is available from VWR International LLC under Catalog #97000-584 having a 2.5 to 4.5 ml capacity. The spectrophotometer is calibrated according to the manufacturer's instructions using a reference cuvette and composition comprised of just the non-volatile silicone fluid of interest. For example, if the test composition comprises 50 centistoke dimethicone and 15% w/w of isopropyl myristate, then the spectrometer is calibrated using a cuvette containing just 50 centistoke dimethicone. Sample cuvettes are filled sufficiently with a test composition of a non-volatile silicone fluid and liquid activation enhancer so that the light path of the spectrophotometer passes through the test composition in the cuvette. The sample cuvettes are shaken well just prior to taking a light transmittance reading.
On to `CCCCCCCCCCCCCCCCCC(=O)OCCCC` [butyl stearate], for which the light transmittance value entry was “about 100%”.

For the molecule `CCCCCCCCCCCCCCCC(=O)OC(C)C` [isopropyl palmitate], the light transmittance value entry is given as “about 101%”.

PPG-14 butyl ether: the “solubility in 50 centistoke dimethicone (in words)” value (“solubility” for short) was “insoluble”.

In the case of mineral oil, the “solubility” value was “soluble in 50 centistoke dimethicone at some (lower) concentrations”.

For the molecule `CCCCCCCCCCCCCC(C)C` [isohexadecane], the light transmittance value result was “about 100%” and the “solubility” value is reported as “soluble”.

In the case of `CCCCCCCCCCC(CO)CCCCCCCC` (centres unmarked) [octyldodecanol], the “solubility” value is “soluble in the 50 centistoke dimethicone at some (lower) concentrations”.

As for `CCCCCCCCCCCCCC(=O)OC(C)C` [isopropyl myristate], the light transmittance value entry is “about 101%”.

Values taken from US20150020915A1, “Antiperspirant Spray Devices and Compositions” (The Procter & Gamble Company, priority 2013, published 2015).
